For 15 compounds, IC50 and GI50 results are on record in ChEMBL document CHEMBL2046421, “Study on anti-proliferative effect of benzoxathiole derivatives through inactivation of NF-κB in human cancer cells” (Bioorg Med Chem Lett, 2012).

A short description of assay [1]: Inhibition of NFkappaB expressed in RAW264.7 cells coexpressing NPT assessed as inhibition of LPS-induced SEAP activity incubated for 2 hrs prior to LPS-induction measured after 16 hrs by reporter gene assay. It counts as cell-based. (Reporter assays use an easily measured gene product as a stand-in for the process of interest.)
Assay [2] is described as follows: Inhibition of NFkappaB expressed in THP1 cells assessed as inhibition of LPS-induced SEAP activity incubated for 2 hrs prior to LPS-induction measured after 16 hrs by reporter gene assay. It counts as cell-based. The note with it: THP-1.
Another assay deals with ACHN. Kind of assay: Antiproliferative activity against human ACHN cells by SRB assay. It counts as functional.
A further assay relates to NCI-H23. Kind of assay: Antiproliferative activity against human NCI-H23 cells by SRB assay. It counts as functional. For orientation: In SRB staining, fixed cells bind dye roughly in proportion to their protein.
A further assay relates to MDA-MB-231. As to the kind of experiment: Antiproliferative activity against human MDA-MB-231 cells by SRB assay. It counts as functional.
In another assay the test system is HCT-15. As to the kind of experiment: Antiproliferative activity against human HCT15 cells by SRB assay. It counts as functional.
A further assay relates to NUGC-3. As to the kind of experiment: Antiproliferative activity against human NUGC3 cells by SRB assay. It counts as functional.
In another assay the test system is PC-3. As to the kind of experiment: Antiproliferative activity against human PC3 cells by SRB assay. It counts as functional.

Some results are limits rather than exact numbers.

What is called IC50 is the concentration that inhibits the measured activity by half. A word on the GI50: it is the concentration that inhibits growth by half. Take `CC1(C)CC(=O)c2s/c(=N/c3ccccc3)oc2C1`: the 50% inhibitory concentration (IC50) in assay [1] and in assay [2] was 6.2 µM throughout. Also, the GI50 amounted to 8.98 µM with ACHN; 7.08 µM in the assay with NCI-H23; 5.88 µM with MDA-MB-231; 8.09 µM in the assay with HCT-15; 5.46 µM in the assay with NUGC-3; 7.4 µM with PC-3.
As to `CC1CC(=O)c2s/c(=N/c3ccccc3)oc2C1` (stereo not drawn), the half-inhibitory concentration (IC50) in assay [1] and in assay [2] was 6.7 µM each time. Further, the GI50 amounted to 2.98 µM in the assay on ACHN; 2.72 µM in the assay with NCI-H23; 2.31 µM with MDA-MB-231; 2.07 µM in the assay with HCT-15; 1.89 µM in the assay on NUGC-3; 2.63 µM in the assay with PC-3.
On to `CC(C)C1CC(=O)c2s/c(=N/c3ccccc3)oc2C1` (stereo not drawn), for which the IC50 in assay [1] and in assay [2] was 4.9 µM each time. Also, the GI50 with ACHN worked out at 3.08 µM; in the assay with NCI-H23, 2.28 µM; in the assay on MDA-MB-231, 2.48 µM; with HCT-15, 1.15 µM; in the assay with NUGC-3, 1.22 µM; with PC-3, 2.19 µM.
For `CC1(C)CC(=O)c2s/c(=N/C3CCCCC3)oc2C1`, the 50% inhibitory concentration (IC50) in assay [1] and in assay [2] was 12.5 µM throughout. Besides, the GI50 stood at 11.3 µM in the assay with ACHN; 12.5 µM in the assay on NCI-H23; 13.1 µM with MDA-MB-231; 12.2 µM in the assay on HCT-15; 11.5 µM in the assay with NUGC-3; 12.7 µM with PC-3.
Turning to `CC(C)C1CC(=O)c2s/c(=N/C3CCCCC3)oc2C1` (stereo not drawn), the half-inhibitory concentration (IC50) in assay [1] and in assay [2] was 13.1 µM each time. The GI50 in the assay on ACHN stood at 6.7 µM; in the assay on NCI-H23, 7.08 µM; in the assay on MDA-MB-231, 5.9 µM; in the assay on HCT-15, 3.53 µM; in the assay on NUGC-3 it was 2.71 µM; in the assay on PC-3 it was 5.16 µM.
Consider `CC1(C)CC(=O)c2s/c(=N/c3ccc(Cl)cc3)oc2C1`, for which the IC50 in assay [1] and in assay [2] was 7.5 µM throughout. Further, the GI50 is 9.81 µM in the assay on ACHN; 11.6 µM in the assay with NCI-H23; 6.38 µM in the assay with MDA-MB-231; 3.79 µM in the assay on HCT-15; 2.94 µM with NUGC-3; 4.26 µM in the assay with PC-3.
As for `CC1CC(=O)c2s/c(=N/c3ccc(Cl)cc3)oc2C1` (stereo not drawn), the half-inhibitory concentration (IC50) in assay [1] and in assay [2] was 19.5 µM throughout. Further, the concentration for 50% growth inhibition (GI50) with ACHN was determined as 12.3 µM; with NCI-H23, 13.5 µM; with MDA-MB-231, 14.3 µM; with HCT-15, 12.2 µM; in the assay on NUGC-3 it was 15.9 µM; in the assay with PC-3 it was 16.4 µM.
With `CC1(C)CC(=O)c2s/c(=N/c3ccc(F)cc3)oc2C1`, the half-maximal inhibitory concentration (IC50) in assay [1] and in assay [2] was 10.6 µM throughout. Further, the GI50 amounted to 3.74 µM in the assay on ACHN; 3.36 µM with NCI-H23; 3.2 µM in the assay with MDA-MB-231; 2.39 µM in the assay on HCT-15; 1.08 µM in the assay with NUGC-3; 2.45 µM with PC-3.
For `CC(C)C1CC(=O)c2s/c(=N/c3ccc(F)cc3)oc2C1` (stereo not drawn), the 50% inhibitory concentration (IC50) in assay [1] and in assay [2] was 7.9 µM throughout. For the same compound, the GI50 stood at 3.67 µM in the assay on ACHN; 3.65 µM with NCI-H23; 2.69 µM in the assay with MDA-MB-231; 2.99 µM in the assay with HCT-15; 0.67 µM with NUGC-3; 2.76 µM in the assay on PC-3.
For the compound `CC1(C)CC(=O)c2s/c(=N/c3c(Cl)cc(Cl)cc3Cl)oc2C1`, the half-maximal inhibitory concentration (IC50) in assay [1] and in assay [2] was above 30 µM each time. In addition, the GI50 with ACHN, in the assay on NCI-H23, with MDA-MB-231, with HCT-15, in the assay with NUGC-3 and with PC-3 was above 30 µM in each case.
Regarding `CC1CC(=O)c2s/c(=N/c3c(Cl)cc(Cl)cc3Cl)oc2C1` (stereo not drawn), the 50% inhibitory concentration (IC50) in assay [1] and in assay [2] was above 30 µM in each case. Further, the GI50 with ACHN, in the assay with NCI-H23, in the assay with MDA-MB-231, with HCT-15, with NUGC-3 and in the assay on PC-3 was above 30 µM throughout.
For the compound `CC(C)C1CC(=O)c2s/c(=N/c3c(Cl)cc(Cl)cc3Cl)oc2C1` (stereo not drawn), the concentration for half-maximal inhibition (IC50) in assay [1] and in assay [2] was above 30 µM each time. The concentration for 50% growth inhibition (GI50) in the assay on ACHN, with NCI-H23, with MDA-MB-231, in the assay with HCT-15, with NUGC-3 and in the assay with PC-3 was above 30 µM throughout.
Consider `CC1(C)CC(=O)c2o/c(=N/C3CCCCC3)oc2C1`, for which the concentration for half-maximal inhibition (IC50) in assay [1] and in assay [2] was above 30 µM each time. Moreover, the concentration for 50% growth inhibition (GI50) in the assay with ACHN, in the assay with NCI-H23, with MDA-MB-231, with HCT-15, with NUGC-3 and in the assay on PC-3 was above 30 µM throughout.
On to `CCCc1o/c(=N\c2ccccc2)sc1C(C)=O`, for which the IC50 in assay [1] and in assay [2] was above 30 µM each time. The 50% growth inhibitory concentration (GI50) in the assay on ACHN, in the assay with NCI-H23, with MDA-MB-231, with HCT-15, in the assay on NUGC-3 and with PC-3 was above 30 µM each time.
With `COc1cccc2c1C(=O)c1c(O)c3c(c(O)c1C2=O)C[C@@](O)(C(=O)CO)C[C@@H]3O[C@H]1C[C@H](N)[C@H](O)[C@H](C)O1` [DOXORUBICIN], the concentration for 50% growth inhibition (GI50) with ACHN was 1.63 µM; in the assay with NCI-H23, 1.66 µM; with MDA-MB-231, 1.79 µM; with HCT-15, 1.34 µM; with NUGC-3, 1 µM; in the assay with PC-3 it was 1.65 µM.
